Common to all, as to assay type: biochemical
What all share (details): single concentration (200, 100 or 50 μM), in duplicate, versus the positive control (vehicle)

The target in assay [1] is T1, DNA gyrase (Staphylococcus aureus, UniProt P0A0K8+P20831).
T1 construct: purchased Inspiralis, UK
The experiment in a line: DNA gyrase supercoiling assay (S. aureus). On the procedure: (§1) The above compounds were tested for the inhibition of the enzyme DNA gyrase in a gyrase supercoiling assay and for the inhibition of the enzyme topoisomerase IV in a decatenation assay, in both Gram positive and Gram negative bacteria, according to the following methods.
(§2) Both the assays were carried out according to a set-up method modified from the article to Blanche F, et al. “Differential Behaviors of Staphylococcus aureus and Escherichia coli Type II DNA Topoisomerases”, Antimicrob.
(§3) The compounds were screened at single concentration (200, 100 or 50 μM), in duplicate.
(§4) Ciprofloxacin and novobiocin were used as reference compounds, at single concentration of 200 and 50 μM, respectively.
(§5) DNA Gyrase Supercoiling Assay.
(§6) Reagents from S. aureus and E. coli Gyrase Supercoiling Assay kits (Inspiralis, UK) were used. A master mix with a total volume sufficient for the number of reactions to perform was prepared with the following reagents: 5× assay buffer, relaxed pBR322 substrate (0.5 μg/reaction), RNase-DNase free water. Aliquotes of this mix were dispensed in each tube, then 10× compound stock solutions or vehicle control (DMSO), were added to each reaction tube.
(§7) Reaction was started with E. Coli (2 U/reaction) or S. aureus (1 U/reaction) gyrase enzyme addition.
(§8) A sample added with an equal volume of dilution buffer was used as negative control (without enzyme).
(§9) The reaction tubes were gentle vortexed and incubated 30 minutes at 37° C. Each reaction was stopped by adding 30 μl of Stop Buffer and 30 μl chloroform/isoamyl alcohol (24/1), briefly vortexed for 5-10 seconds and centrifuged at 20000×g for 2 minutes. Samples were loaded onto 1% agarose gel and subjected to electrophoresis for 1 hour at 80V constant voltage in TAE (40 mM Tris-acetate, 2 mM EDTA).
(§10) Data acquisition and analysis. Treatment of relaxed pBR322 with DNA gyrase converted the relaxed topoisomers (DNAs of different linking number) to the supercoiled form of the plasmid, which migrates faster on an agarose gel. An upper band might also be visible, which consists of open-circular (nicked) DNA which is present in the relaxed substrate but co-migrates with some of the relaxed topoisomers.
(§11) Bands were visualized by ethidium bromide staining (dil 1:20000) for 30 minutes followed by destaining in distilled water for 10 minutes.
(§12) In order to evaluate the compounds activity on the enzyme, the bands of supercoiled DNAs in the gel were photographed by a digital imaging system ImageQuant LAS 4000 (GE Healthcare) according to manufacturer's instructions.
(§13) The fluorescent intensity of each band was analysed by ImageQuant TL software and it was expressed as volume (volume of the uncalibrated quantity of material in the image feature after subtraction of the background intensity by using rolling ball method).
(§14) Each band intensity was compared, as percentage, to vehicle sample band intensity, which served as positive control, on the same gel.
(§15) Inhibitory activity was expressed as percent of inhibition versus the positive control.

The target in assay [2] is T2, Topoisomerase IV (Escherichia coli, UniProt P0AFI2+P20083).
T2 construct: purchased Inspiralis, UK
Nature of the assay: Topoisomerase IV decatenation assay (E. coli). The protocol:
as §1, §2, §3, §4
(§16) Topoisomerase IV Decatenation Assay
(§17) S. aureus and E. coli Topoisomerase IV decatenation kits (Inspiralis, UK) were used. A master mix with a total volume sufficient for the number of reactions to perform was prepared with the following reagents: 5× assay buffer (50 mM HEPES-KOH (pH 7.6), 100 mM potassium glutamate, 10 mM magnesium acetate, 10 mM DTT, 1 mM ATP, 50 μg/ml albumin), kDNA substrate (200 ng/reaction), RNase-DNase free water. Aliquots of this mix were dispensed in each tube, then 10× compound stock solutions or vehicle control (DMSO), were added in each reaction tube.
(§18) Reaction was started with Topoisomerase IV enzyme (0.5 U/reaction) addition.
as §8
(§19) The reaction tubes were gentle vortexed and incubated 30 minutes at 37° C. Each reaction was stopped by adding 30 μl of Stop Buffer and 30 μl of chloroform/isoamyl alcohol (24/1), briefly vortexed for 5-10 seconds and centrifuged at 20000×g for 2 minutes. Samples taken from the upper phase were loaded into 1% agarose gel and subjected to electrophoresis for 1 hour at 80V constant voltage in TAE (40 mM Tris-acetate, 2 mM EDTA).
(§20) Data acquisition and analysis. Due to the high molecular mass, kDNA could not enter an agarose gel under normal electrophoresis conditions, but remained in the wells. In the presence of Topo IV topoisomerase mini-circles (2.5 Kb) were released from kDNA by decatenation and were quickly and easily resolved in the gel at relatively high voltages.
as §11
(§21) For single concentration screening assay, in order to evaluate the compounds activity on the enzymes, the bands of decatenated DNAs in the gel were photographed by a digital imaging system ImageQuant LAS 4000 (GE Healthcare) according to manufacturer's instructions.
(§22) The fluorescent intensity of each band was analyzed by ImageQuant TL software and it was expressed as volume (volume of the uncalibrated quantity of material in the image feature after subtraction of the background intensity by using rolling ball method).
as §14, §15

In assay [3] the target is T3, DNA gyrase (Escherichia coli, UniProt P0AES4+P0AES6).
T3 construct: purchased Inspiralis, UK
The experiment in a line: DNA gyrase supercoiling assay (E. coli). The protocol: as §1, §2, §3, §4, §5, §6, §7, §8, §9, §10, §11, §12, §13, §14, §15

The target of assay [4] is T4, Topoisomerase IV (Staphylococcus aureus, UniProt P0C1S7+P0C1U9).
T4 construct: purchased Inspiralis, UK
The experiment in a line: Topoisomerase IV decatenation assay (S. aureus). The protocol:
as §1, §2, §3, §4, §16, §17, §18, §8, §19, §20, §11, §21, §22, §14, §15

Structures can show the parent of a compound that is named as a salt.

T4 sequence (P0C1S7 whole entry): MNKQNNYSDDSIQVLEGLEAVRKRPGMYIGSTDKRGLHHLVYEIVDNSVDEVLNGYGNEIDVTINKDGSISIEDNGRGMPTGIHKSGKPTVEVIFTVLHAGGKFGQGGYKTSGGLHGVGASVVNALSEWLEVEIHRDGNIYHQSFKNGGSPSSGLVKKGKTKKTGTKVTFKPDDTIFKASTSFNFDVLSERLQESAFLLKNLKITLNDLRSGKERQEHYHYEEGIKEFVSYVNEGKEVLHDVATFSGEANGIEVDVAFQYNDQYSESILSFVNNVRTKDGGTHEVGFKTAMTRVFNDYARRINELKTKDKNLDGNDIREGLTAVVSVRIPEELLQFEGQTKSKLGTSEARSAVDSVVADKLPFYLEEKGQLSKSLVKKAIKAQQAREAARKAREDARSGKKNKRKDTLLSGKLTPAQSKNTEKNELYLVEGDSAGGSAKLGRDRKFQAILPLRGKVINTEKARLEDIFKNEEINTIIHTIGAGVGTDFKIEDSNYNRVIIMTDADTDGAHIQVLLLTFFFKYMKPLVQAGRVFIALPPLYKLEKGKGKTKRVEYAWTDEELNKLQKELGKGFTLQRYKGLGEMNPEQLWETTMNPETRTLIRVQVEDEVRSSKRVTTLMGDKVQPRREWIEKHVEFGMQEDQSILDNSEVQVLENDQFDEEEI
T4 sequence (P0C1U9 whole entry): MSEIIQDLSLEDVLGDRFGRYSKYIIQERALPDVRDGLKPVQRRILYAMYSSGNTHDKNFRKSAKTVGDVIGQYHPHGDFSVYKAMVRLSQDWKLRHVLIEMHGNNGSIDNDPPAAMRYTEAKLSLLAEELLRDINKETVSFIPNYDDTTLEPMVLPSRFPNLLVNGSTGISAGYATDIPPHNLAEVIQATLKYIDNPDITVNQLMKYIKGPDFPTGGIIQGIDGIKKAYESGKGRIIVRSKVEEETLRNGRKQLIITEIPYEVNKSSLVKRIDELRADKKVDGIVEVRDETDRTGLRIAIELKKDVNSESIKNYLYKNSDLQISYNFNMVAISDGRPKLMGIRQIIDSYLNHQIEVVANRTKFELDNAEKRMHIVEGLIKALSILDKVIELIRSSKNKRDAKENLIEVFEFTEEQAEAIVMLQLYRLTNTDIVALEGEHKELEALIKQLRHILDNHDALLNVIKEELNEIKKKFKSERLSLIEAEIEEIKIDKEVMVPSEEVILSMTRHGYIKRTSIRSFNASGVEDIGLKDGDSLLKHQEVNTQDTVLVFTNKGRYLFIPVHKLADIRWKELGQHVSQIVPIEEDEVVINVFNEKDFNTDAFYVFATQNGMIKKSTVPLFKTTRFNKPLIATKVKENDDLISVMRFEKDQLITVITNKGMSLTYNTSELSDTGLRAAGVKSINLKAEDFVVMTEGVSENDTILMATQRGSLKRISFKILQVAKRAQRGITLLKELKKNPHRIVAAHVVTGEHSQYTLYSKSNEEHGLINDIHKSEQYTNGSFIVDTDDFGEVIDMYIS
T1 sequence (P20831 whole entry): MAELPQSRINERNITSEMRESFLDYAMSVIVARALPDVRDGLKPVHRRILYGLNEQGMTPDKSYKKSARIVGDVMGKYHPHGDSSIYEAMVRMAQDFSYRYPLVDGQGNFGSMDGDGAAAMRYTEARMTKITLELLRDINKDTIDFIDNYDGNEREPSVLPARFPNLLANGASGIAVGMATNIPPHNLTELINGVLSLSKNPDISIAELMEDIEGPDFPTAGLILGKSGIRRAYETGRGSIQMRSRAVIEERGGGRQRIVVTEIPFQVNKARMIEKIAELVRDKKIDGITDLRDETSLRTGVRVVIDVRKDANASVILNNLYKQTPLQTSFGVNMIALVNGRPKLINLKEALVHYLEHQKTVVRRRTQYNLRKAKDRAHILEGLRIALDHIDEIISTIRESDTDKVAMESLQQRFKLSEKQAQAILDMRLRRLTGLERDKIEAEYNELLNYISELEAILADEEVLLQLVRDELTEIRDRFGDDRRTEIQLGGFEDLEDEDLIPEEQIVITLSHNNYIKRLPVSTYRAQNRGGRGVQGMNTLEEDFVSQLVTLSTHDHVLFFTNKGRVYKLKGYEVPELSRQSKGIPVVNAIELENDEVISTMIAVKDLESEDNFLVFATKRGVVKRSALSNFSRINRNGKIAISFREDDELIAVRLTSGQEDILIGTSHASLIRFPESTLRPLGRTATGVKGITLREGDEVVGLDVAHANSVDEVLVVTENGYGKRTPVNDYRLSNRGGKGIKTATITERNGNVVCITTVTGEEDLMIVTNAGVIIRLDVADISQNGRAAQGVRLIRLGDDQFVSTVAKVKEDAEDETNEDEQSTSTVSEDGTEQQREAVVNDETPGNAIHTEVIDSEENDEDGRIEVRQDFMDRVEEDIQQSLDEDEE
T1 sequence (P0A0K8 whole entry): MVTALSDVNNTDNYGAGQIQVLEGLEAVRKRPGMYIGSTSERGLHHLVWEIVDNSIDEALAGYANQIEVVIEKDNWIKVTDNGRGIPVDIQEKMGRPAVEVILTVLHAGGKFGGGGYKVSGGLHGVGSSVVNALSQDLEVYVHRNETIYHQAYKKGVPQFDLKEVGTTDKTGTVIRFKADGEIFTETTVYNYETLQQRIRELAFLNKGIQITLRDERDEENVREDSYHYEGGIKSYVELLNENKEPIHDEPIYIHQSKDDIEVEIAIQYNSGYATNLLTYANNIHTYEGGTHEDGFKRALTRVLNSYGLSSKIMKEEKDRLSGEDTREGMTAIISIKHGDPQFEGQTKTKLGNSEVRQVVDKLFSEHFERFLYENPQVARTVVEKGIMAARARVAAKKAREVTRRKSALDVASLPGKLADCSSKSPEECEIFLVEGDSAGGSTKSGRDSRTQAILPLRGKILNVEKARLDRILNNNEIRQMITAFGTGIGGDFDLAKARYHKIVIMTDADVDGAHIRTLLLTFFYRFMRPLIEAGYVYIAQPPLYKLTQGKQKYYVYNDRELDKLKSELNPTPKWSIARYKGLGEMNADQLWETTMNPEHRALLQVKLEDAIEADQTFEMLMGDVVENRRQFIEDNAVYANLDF
T2 sequence (P20083 whole entry): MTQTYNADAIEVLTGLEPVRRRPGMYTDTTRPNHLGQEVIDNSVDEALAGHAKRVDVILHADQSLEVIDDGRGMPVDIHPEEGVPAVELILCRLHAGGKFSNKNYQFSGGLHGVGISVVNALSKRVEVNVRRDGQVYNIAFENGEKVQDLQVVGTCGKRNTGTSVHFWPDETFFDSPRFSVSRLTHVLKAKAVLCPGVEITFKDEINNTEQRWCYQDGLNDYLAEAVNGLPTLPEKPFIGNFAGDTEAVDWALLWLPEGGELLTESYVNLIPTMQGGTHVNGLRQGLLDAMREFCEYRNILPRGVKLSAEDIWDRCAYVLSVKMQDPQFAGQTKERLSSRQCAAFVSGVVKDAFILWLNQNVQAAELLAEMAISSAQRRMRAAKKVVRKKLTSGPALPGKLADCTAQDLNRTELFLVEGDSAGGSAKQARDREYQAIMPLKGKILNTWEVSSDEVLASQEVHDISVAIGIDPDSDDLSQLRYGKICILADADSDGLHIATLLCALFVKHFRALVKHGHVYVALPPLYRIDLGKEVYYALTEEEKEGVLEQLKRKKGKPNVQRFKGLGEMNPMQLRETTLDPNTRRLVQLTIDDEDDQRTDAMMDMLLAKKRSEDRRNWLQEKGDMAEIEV
T2 sequence (P0AFI2 whole entry): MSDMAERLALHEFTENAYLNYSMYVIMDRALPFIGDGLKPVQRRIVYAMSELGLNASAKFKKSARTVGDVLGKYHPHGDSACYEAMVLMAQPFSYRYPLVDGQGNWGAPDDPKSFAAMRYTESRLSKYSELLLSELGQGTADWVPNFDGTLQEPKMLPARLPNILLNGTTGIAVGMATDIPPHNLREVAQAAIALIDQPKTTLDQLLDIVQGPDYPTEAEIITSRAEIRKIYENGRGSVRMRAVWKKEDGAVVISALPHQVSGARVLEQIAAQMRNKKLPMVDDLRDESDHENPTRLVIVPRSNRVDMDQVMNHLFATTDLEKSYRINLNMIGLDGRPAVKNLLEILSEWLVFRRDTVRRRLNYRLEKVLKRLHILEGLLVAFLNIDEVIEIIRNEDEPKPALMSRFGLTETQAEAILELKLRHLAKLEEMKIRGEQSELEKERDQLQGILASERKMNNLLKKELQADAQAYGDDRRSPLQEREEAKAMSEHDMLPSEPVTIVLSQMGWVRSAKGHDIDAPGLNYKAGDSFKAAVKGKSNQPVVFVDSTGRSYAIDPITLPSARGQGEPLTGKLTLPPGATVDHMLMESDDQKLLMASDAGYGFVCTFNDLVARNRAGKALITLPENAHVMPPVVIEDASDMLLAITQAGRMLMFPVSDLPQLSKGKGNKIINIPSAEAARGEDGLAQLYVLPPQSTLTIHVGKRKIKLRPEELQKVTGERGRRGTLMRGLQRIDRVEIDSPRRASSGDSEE

Take `O=C(O)CC(NCCNC1CCN(c2nccc3ccc(F)cc23)CC1)C1CCCCC1` (centres unmarked) [Compound 190, lithium 3-cyclohexyl-3-[(2-{[1-(7-fluoroisoquinolin-1-yl)piperidin-4-yl]amino}ethyl)amino]propanoate]: the “% inhibition DNA gyrase” value on DNA gyrase [1] worked out at 73%; at DNA gyrase [3], 61%. Further, the “% inhibition Topo IV” value on Topoisomerase IV [2] and at Topoisomerase IV [4] was “n/a (n/a = not active)” throughout.

In the case of `C[N+]1(CCCc2nccc3ccccc23)CCC(Nc2cc(=O)oc3ccccc23)CC1` (centres unmarked) [Compound 123], the “% inhibition DNA gyrase” value at DNA gyrase [1] is “n/a (n/a = not active)”; on DNA gyrase [3], 52%. In addition, the “% inhibition Topo IV” value on Topoisomerase IV [2] and on Topoisomerase IV [4] was “n/a (n/a = not active)” each time.

As to `O=c1cc(NCCCN2CCN(c3nccc4ccccc34)CC2)cc(-c2ccccc2)o1` [Compound 60, 4-({3-[4-(isoquinolin-1-yl)piperazin-1-yl]propyl}amino)-6-phenyl-2H-pyran-2-one hydrochloride], the “% inhibition DNA gyrase” value at DNA gyrase [1] came to 89%; at DNA gyrase [3], 100%. Also, the “% inhibition Topo IV” value on Topoisomerase IV [2] and at Topoisomerase IV [4] was “n/a (n/a = not active)” throughout.

For the compound `COC(=O)C1CN(c2nccc3ccccc23)CCN1CCCNc1cc(=O)oc2ccccc12` (centres unmarked) [Compound 81, methyl 4-(isoquinolin-1-yl)-1-{3-[(2-oxo-2H-chromen-4-yl)amino]propyl}piperazine-2-carboxylate hydrochloride], the “% inhibition DNA gyrase” value at DNA gyrase [1] is recorded as “n/a (n/a = not active)”; on DNA gyrase [3], 80%. Also, the “% inhibition Topo IV” value at Topoisomerase IV [2] and on Topoisomerase IV [4] was “n/a (n/a = not active)” each time.

In the case of `O=c1oc2ccccc2cc1NCCCN1CCN(c2nccc3ccccc23)CC1` [Compound 87, 3-({3-[4-(isoquinolin-1-yl)piperazin-1-yl]propyl}amino)-2H-chromen-2-one hydrochloride], the “% inhibition DNA gyrase” value worked out at 96% at DNA gyrase [1] and 79% on DNA gyrase [3]. Also, the “% inhibition Topo IV” value on Topoisomerase IV [2] and on Topoisomerase IV [4] was “n/a (n/a = not active)” throughout.

For the compound `O=C(O)C[C@@H](NC[C@H](O)CN1CCN(c2nccc3ccc(F)cc23)CC1)c1ccccc1` [Compound 142, (3R)-3-({(2S)-3-[4-(7-fluoroisoquinolin-1-yl)piperazin-1-yl]-2-hydroxypropyl}amino)-3-phenylpropanoic acid], the “% inhibition DNA gyrase” value is listed as 52% on DNA gyrase [1] and “n/a (n/a = not active)” at DNA gyrase [3]. In addition, the “% inhibition Topo IV” value on Topoisomerase IV [2] and at Topoisomerase IV [4] was “n/a (n/a = not active)” throughout.

Regarding `O=c1cc(NCCCN2CCN(c3nccc4ccc(F)cc34)CC2)c2c(o1)CCNC2` [Compound 122, 4-({3-[4-(7-fluoroisoquinolin-1-yl)piperazin-1-yl]propyl}amino)-5,6,7,8-tetrahydro-2H-pyrano[3,2-c]pyridin-2-one hydrochloride], the “% inhibition DNA gyrase” value at DNA gyrase [1] is “n/a (n/a = not active)”; at DNA gyrase [3], 58%. Besides, the “% inhibition Topo IV” value at Topoisomerase IV [2] and on Topoisomerase IV [4] was “n/a (n/a = not active)” each time.

On to `O=C(O)C[C@@H](NC[C@@H](O)CN1CCN(c2nccc3ccc(F)cc23)CC1)c1ccccc1` [Compound 141, (3R)-3-({(2R)-3-[4-(7-fluoroisoquinolin-1-yl)piperazin-1-yl]-2-hydroxypropyl}amino)-3-phenylpropanoic acid], for which the figures for the “% inhibition DNA gyrase” value at DNA gyrase [1] and at DNA gyrase [3] were 65% and “n/a (n/a = not active)”, respectively. Further, the “% inhibition Topo IV” value on Topoisomerase IV [2] and at Topoisomerase IV [4] was “n/a (n/a = not active)” each time.

Take `Cc1ccc2c(N3CCN(CCCNC(=O)c4cccnc4)CC3)nccc2c1` [Compound 35, N-{3-[4-(6-methylisoquinolin-1-yl)piperazin-1-yl]propyl}pyridine-3-carboxamide]: the “% inhibition DNA gyrase” value on DNA gyrase [1] is 78%; on DNA gyrase [3], “n/a (n/a = not active)”. In addition, the “% inhibition Topo IV” value at Topoisomerase IV [2] and at Topoisomerase IV [4] was “n/a (n/a = not active)” in each case.

As for `O=C(NCCCN1CCN(c2nccc3ccccc23)CC1)c1ccccc1` [Compound 3, N-{3-[4-(isoquinolin-1-yl)piperazin-1-yl]propyl}benzamide hydrochloride], the “% inhibition DNA gyrase” value is “n/a (n/a = not active)” at DNA gyrase [1] and 59% at DNA gyrase [3]. Moreover, the “% inhibition Topo IV” value on Topoisomerase IV [2] and at Topoisomerase IV [4] was “n/a (n/a = not active)” in each case.

`Cc1cccc2oc(=O)cc(NCCCN3CCN(c4nccc5ccc(F)cc45)CC3)c12` [Compound 96, 4-({3-[4-(7-fluoroisoquinolin-1-yl)piperazin-1-yl]propyl}amino)-5-methyl-2H-chromen-2-one hydrochloride]: the results for the “% inhibition DNA gyrase” value on DNA gyrase [1] and at DNA gyrase [3] were 91% and 88%, respectively. Besides, the “% inhibition Topo IV” value on Topoisomerase IV [2] and at Topoisomerase IV [4] was “n/a (n/a = not active)” in each case.

With `O=C(NCCN1CCN(c2nccc3ccccc23)CC1)c1ccccc1` [Compound 4, N-{2-[4-(isoquinolin-1-yl)piperazin-1-yl]ethyl}benzamide hydrochloride], the “% inhibition DNA gyrase” value at DNA gyrase [1] is 84%; at DNA gyrase [3], “n/a (n/a = not active)”. Moreover, the “% inhibition Topo IV” value is reported as 53% on Topoisomerase IV [2] and “n/a (n/a = not active)” at Topoisomerase IV [4].

As for `O=c1cc(NCCCN2CCN(c3cccc4ccccc34)CC2)c2ccccc2o1` [Compound 50, 4-({3-[4-(naphthalen-1-yl)piperazin-1-yl]propyl}amino)-2H-chromen-2-one hydrochloride], the “% inhibition DNA gyrase” value on DNA gyrase [1] is “n/a (n/a = not active)”; at DNA gyrase [3], 92%. Besides, the “% inhibition Topo IV” value at Topoisomerase IV [2] and at Topoisomerase IV [4] was “n/a (n/a = not active)” in each case.

`COc1ccc2c(N3CCN(CCCNC(=O)c4cccnc4)CC3)nccc2c1` [Compound 36, N-{3-[4-(6-methoxyisoquinolin-1-yl)piperazin-1-yl]propyl}pyridine-3-carboxamide hydrochloride]: the “% inhibition DNA gyrase” value on DNA gyrase [1] is 90%; at DNA gyrase [3], “n/a (n/a = not active)”. In addition, the “% inhibition Topo IV” value on Topoisomerase IV [2] and on Topoisomerase IV [4] was “n/a (n/a = not active)” in each case.

Source of the values: patent US10369130B2, “Antibacterial compounds” (AZIENDE CHIMICHE RIUNITE ANGELINI FRANCESCO A.C.R.A.F. …, priority 2014, dated 2019).
